The text below walks through data of ChEMBL document CHEMBL1138438, “Structural-activity relationship study of highly-functionalized imidazolines as potent inhibitors of nuclear transcription factor-kappaB mediated IL-6 production” (Bioorg Med Chem, 2009).

Activity calls are given as the source filed them. No cut-off for these calls is given here.

Data set [1] in a line: Inhibition of NF-kappaB-mediated gene transcription expressed in TNF-alpha-stimulated human HeLa cells for 30 mins before TNFalpha challenge measured after 8 hrs by steady-glo luciferase reporter gene assay. The format is cell-based.
Data set [2] relates to Blood. As to the kind of experiment: Antiinflammatory activity in human whole blood assessed as inhibition of IL-1-beta-stimulated IL6 production preincubated 2 hrs before IL1-beta challenge measured after 18 hrs by ELISA. The format is functional, tissue-based. Background: ELISA stands for enzyme-linked immunosorbent assay.
Data set [3] relates to HeLa. As to the kind of experiment: Stimulation of NF-kappaB-mediated gene transcription expressed in human HeLa cells for 30 mins before TNFalpha challenge measured after 8 hrs by steady-glo luciferase reporter gene assay. The data set is classed as cell-based.
The nature of data set [4]: Cytotoxicity against human 184B5 cells after 24 hrs by MTS assay. The data set is classed as cell-based. (Formazan colour is commonly taken as a measure of viable cells.)

For `COC(=O)[C@]1(Cc2cc3ccccc3[nH]2)N=C(c2ccccc2)N(Cc2ccccc2)[C@@H]1c1ccccc1` (racemic), in data set [1], a half-maximal effect (EC50) was put at 13 µM. Also, in data set [2], the Activity entry was “Dose-dependent effect”. The 50% inhibitory concentration (IC50) in data set [2] (read-out: IC50) was 16.1 µM; in data set [2] (read-out: Log IC50 (converted)), 16.2 µM. In data set [3], the result was inactive. Besides, the CC50 at 24 h in data set [4] is greater than 10 µM.

In data set [1], `COC(=O)[C@]1(C)N=C(c2ccccc2)N(Cc2ccccc2)[C@@H]1c1ccccc1` (racemic) showed an EC50 greater than 20 µM. For the same compound, in data set [2], the Activity result was “Dose-dependent effect”. The concentration for half-maximal inhibition (IC50) was 3 µM in data set [2] (read-out: IC50) and 2.95 µM in data set [2] (read-out: Log IC50 (converted)). In addition, the outcome in data set [3] was inactive. Moreover, in data set [4], the CC50 at 24 h was greater than 10 µM.

For the compound `CCOC(=O)[C@]1(c2ccccc2)N=C(c2ccccc2)N(S(=O)(=O)c2ccc(C)cc2)[C@@H]1c1ccccc1` (racemic), the EC50 in data set [1] was determined as 36.1 µM. The Activity entry in data set [2] is “Dose-dependent effect”. Moreover, the IC50 is 6.6 µM in data set [2] (read-out: IC50) and 6.61 µM in data set [2] (read-out: Log IC50 (converted)). The result in data set [3] was inactive. In data set [4], the CC50 at 24 h was greater than 10 µM.

`CCOC(=O)[C@]1(c2ccccc2)N=C(c2ccccc2)N(Cc2ccc(OC)cc2)[C@@H]1c1ccccc1` (racemic) came in with a concentration for a half-maximal effect (EC50) in data set [1] of 5 µM. Also, the Activity entry in data set [2] is “Dose-dependent effect”. Moreover, the IC50 in data set [2] (read-out: IC50) is 1.4 µM; in data set [2] (read-out: Log IC50 (converted)), 1.38 µM. Further, in data set [3], the outcome was inactive. The half-maximal cytotoxic concentration (CC50) at 24 h in data set [4] is greater than 10 µM.

In the case of `NC(=O)[C@]1(c2ccccc2)N=C(c2ccccc2)N(Cc2ccccc2)[C@@H]1c1ccccc1` (racemic), the EC50 in data set [1] was greater than 20 µM. The Activity entry in data set [2] is “Dose-dependent effect”. Further, the figures for the concentration for half-maximal inhibition (IC50) in data set [2] (read-out: IC50) and in data set [2] (read-out: Log IC50 (converted)) were greater than 20 µM and 46.8 µM, respectively. In data set [3], the result was inactive. This compound gave a CC50 at 24 h in data set [4] greater than 10 µM.

In data set [1], `CCOC(=O)[C@]1(c2ccccc2)N=C(c2ccccc2)N(Cc2ccccc2)[C@@H]1c1ccco1` (racemic) returned a concentration for a half-maximal effect (EC50) of 7.6 µM. Besides, the Activity entry in data set [2] was “Dose-dependent effect”. The IC50 was 1.9 µM in data set [2] (read-out: IC50) and 1.91 µM in data set [2] (read-out: Log IC50 (converted)). Further, the outcome in data set [3] was inactive. Further, the CC50 at 24 h in data set [4] was greater than 10 µM.

Compound `CCOC(=O)[C@]1(c2ccccc2)N=C(c2ccccc2)N[C@@H]1c1ccccc1` (racemic) yielded an EC50 in data set [1] of 116 µM. In data set [2], the Activity result is “Dose-dependent effect”. The half-inhibitory concentration (IC50) in data set [2] (read-out: IC50) was greater than 20 µM; in data set [2] (read-out: Log IC50 (converted)) it was 34.7 µM. For the same compound, in data set [3], the outcome was inactive. This compound also came in with a CC50 at 24 h in data set [4] greater than 10 µM.

In data set [1], `CCOC(=O)[C@]1(c2ccccc2)N=C(c2ccccc2)N(Cc2ccccc2)[C@@H]1c1ccc(F)cc1` (racemic) came in with an EC50 of 5 µM. Further, the Activity entry in data set [2] was “Dose-dependent effect”. For the same compound, the half-maximal inhibitory concentration (IC50) was 1 µM in data set [2] (read-out: IC50) and 1.05 µM in data set [2] (read-out: Log IC50 (converted)). Moreover, the outcome in data set [3] was inactive. In data set [4], this compound gave a CC50 at 24 h greater than 10 µM.

In data set [1], `CCCOC(=O)[C@]1(c2ccccc2)N=C(c2ccccc2)N(Cc2ccccc2)[C@@H]1c1ccccc1` (racemic) displayed a half-maximal effective concentration (EC50) of 2.3 µM. In addition, the Activity result in data set [2] is “Dose-dependent effect”. The concentration for half-maximal inhibition (IC50) is 1.9 µM in data set [2] (read-out: IC50) and 1.95 µM in data set [2] (read-out: Log IC50 (converted)). The result in data set [3] was inactive. In data set [4], this compound had a CC50 at 24 h greater than 10 µM.

Compound `CCOC(=O)[C@]1(c2ccccc2)N=C(c2ccccc2)N(Cc2ccccc2)[C@@H]1c1ccc(Cl)cc1` (racemic) gave a half-maximal effective concentration (EC50) in data set [1] of 1.5 µM. The Activity result in data set [2] was “Dose-dependent effect”. Moreover, the IC50 is 0.3 µM in data set [2] (read-out: IC50) and 0.0617 µM in data set [2] (read-out: Log IC50 (converted)). In addition, the outcome in data set [3] was inactive. The compound further yielded a CC50 at 24 h in data set [4] greater than 10 µM.

`CCOC(=O)[C@]1(c2ccccc2)N=C(c2ccccc2)N(Cc2ccc(Br)cc2)[C@@H]1c1ccccc1` (racemic) registered a concentration for a half-maximal effect (EC50) in data set [1] of 2.7 µM. For the same compound, in data set [2], the Activity result is “Dose-dependent effect”. Moreover, the half-maximal inhibitory concentration (IC50) in data set [2] (read-out: IC50) was 0.5 µM; in data set [2] (read-out: Log IC50 (converted)), 2 µM. In addition, the outcome in data set [3] was inactive. Besides, the cytotoxic concentration (CC50) at 24 h in data set [4] was greater than 10 µM.

In turn, `CC(C)OC(=O)[C@]1(c2ccccc2)N=C(c2ccccc2)N(Cc2ccccc2)[C@@H]1c1ccccc1` (racemic) displayed an EC50 in data set [1] of 3.5 µM. The Activity result in data set [2] is “Dose-dependent effect”. Also, the values for the half-inhibitory concentration (IC50) in data set [2] (read-out: IC50) and in data set [2] (read-out: Log IC50 (converted)) were 1.9 µM and 1.95 µM, respectively. The outcome in data set [3] was inactive. The same compound displayed a CC50 at 24 h in data set [4] greater than 10 µM.

In the case of `CCOC(=O)[C@]1(c2ccccc2)N=C(c2ccccc2)N(Cc2ccccc2)[C@@H]1c1ccc(C(F)(F)F)cc1` (racemic), the EC50 in data set [1] worked out at 1.4 µM. Further, the Activity result in data set [2] was “Dose-dependent effect”. Further, the half-maximal inhibitory concentration (IC50) in data set [2] (read-out: IC50) was 0.8 µM; in data set [2] (read-out: Log IC50 (converted)) it was 0.851 µM. Further, the result in data set [3] was inactive. Besides, in data set [4], the CC50 at 24 h was greater than 10 µM.

In turn, `O=C(OCc1ccccc1)[C@]1(c2ccccc2)N=C(c2ccccc2)N(Cc2ccccc2)[C@@H]1c1ccccc1` (racemic) showed an EC50 in data set [1] of 3.5 µM. Further, the Activity result in data set [2] was “Dose-dependent effect”. The IC50 in data set [2] (read-out: IC50) was 5.9 µM; in data set [2] (read-out: Log IC50 (converted)) it was 5.89 µM. Further, the outcome in data set [3] was inactive. Further, the cytotoxic concentration (CC50) at 24 h in data set [4] was greater than 10 µM.

As to `CCOC(=O)[C@]1(c2ccccc2)N=C(c2ccccc2)N(Cc2ccc(C(F)(F)F)cc2)[C@@H]1c1ccccc1` (racemic), in data set [1], it took 6.7 µM to reach a half-maximal effect (EC50). Also, the Activity result in data set [2] is “Dose-dependent effect”. Also, the IC50 was 1.5 µM in data set [2] (read-out: IC50) and 1.48 µM in data set [2] (read-out: Log IC50 (converted)). Also, the outcome in data set [3] was inactive. The CC50 at 24 h in data set [4] is greater than 10 µM.

Take `CCOC(=O)[C@]1(c2ccccc2)N=C(c2ccccc2)N(Cc2ccccc2)[C@@H]1c1ccncc1` (racemic): the EC50 in data set [1] is greater than 20 µM. The Activity result in data set [2] is “Dose-dependent effect”. The half-inhibitory concentration (IC50) is 9.4 µM in data set [2] (read-out: IC50) and 9.33 µM in data set [2] (read-out: Log IC50 (converted)). The result in data set [3] was inactive. Moreover, in data set [4], the CC50 at 24 h was greater than 10 µM.

For the compound `CCOC(=O)[C@]1(c2ccccc2)N=C(c2ccccc2)N(C(C)=O)[C@@H]1c1ccccc1` (racemic), the 50% effective concentration (EC50) in data set [1] was found to be 168 µM. Further, in data set [2], the Activity result is “Dose-dependent effect”. In addition, the IC50 in data set [2] (read-out: IC50) was greater than 20 µM. Moreover, the outcome in data set [3] was inactive. Moreover, in data set [4], the half-maximal cytotoxic concentration (CC50) at 24 h is greater than 10 µM.

Compound `CCOC(=O)[C@]1(c2ccccc2)N=C(c2ccccc2)N(Cc2ccc(C)cc2)[C@@H]1c1ccccc1` (racemic) yielded a half-maximal effective concentration (EC50) in data set [1] of 1.7 µM. Further, the Activity result in data set [2] was “Dose-dependent effect”. Besides, the IC50 was 4.6 µM in data set [2] (read-out: IC50) and 4.57 µM in data set [2] (read-out: Log IC50 (converted)). Also, the result in data set [3] was inactive. In addition, the CC50 at 24 h in data set [4] is greater than 10 µM.

In data set [1], `CCOC(=O)[C@]1(c2ccccc2)N=C(c2ccccc2)N(Cc2ccco2)[C@@H]1c1ccccc1` (racemic) gave a concentration for a half-maximal effect (EC50) of 5.5 µM. In data set [2], the Activity entry was “Dose-dependent effect”. Moreover, the IC50 in data set [2] (read-out: IC50) is 1.3 µM; in data set [2] (read-out: Log IC50 (converted)) it was 1.29 µM. The result in data set [3] was inactive. In data set [4], this compound showed a CC50 at 24 h greater than 10 µM.

In the case of `COC(=O)[C@]1(c2ccccc2)N=C(c2ccccc2)N(Cc2ccccc2)[C@@H]1c1ccccc1` (racemic), the midpoint of the response in data set [1], the EC50, lay at 7.5 µM. In addition, in data set [2], the Activity entry was “Dose-dependent effect”. The IC50 in data set [2] (read-out: IC50) was 3 µM; in data set [2] (read-out: Log IC50 (converted)) it was 3.02 µM. The outcome in data set [3] was inactive. This compound also returned a CC50 at 24 h in data set [4] greater than 10 µM.

What is called EC50 is the concentration needed to bring the measured effect to its halfway point. Higher therefore signals weaker potency. By IC50 is commonly meant the midpoint of a concentration-inhibition curve. As a reminder, the CC50 is the concentration that lowers cell viability or growth by half.
